Data reported in US20110117220A1, “PREPARATION METHOD OF PLANT EXTRACT USING HIGH PRESSURE-ENZYMATIC DECOMPOSITION TECHNIQUE AND THE COSMETIC COMPOSITION CONTAINING THE EXTRACT” (AMOREPACIFIC CORPORATION, priority 2009, published 2011).
Values after ≈ are worked out from the molar mass of the structure shown.

Experiments:
transglutaminase-1 = experiment: Promotion of transglutaminase-1 synthesis in human skin cells; assay type: cell-based; details: concentration 1.5 mM, 2 days
Protocol: Because the synthesis of transglutaminase-1 is essential for the formation and maintenance of the horny layer, the effect of promoting the synthesis of transglutaminase-1 can be considered to enhance the skin barrier and increase the skin moisturizing effect. Specifically, human skin cells were added to each well of a 96-well plate at a density of 5×10^4 cells/well and allowed to adhere to each well for 24 hours. The adhered cells were treated with each of the test materials, and after 2 days, the medium was removed, and the cells were stored in a refrigerator at −20° C. The treated cells were disrupted by subjecting the cells twice to freeze-thawing, and then treated with a mixture of acetone:ethanol (1:1, v/v) stored at −20° C. Then, the cells were allowed to stand at 4° C. for 30 minutes so as to be immobilized. Then, the cells were allowed to stand at room temperature to evaporate the organic solvent. […] The expression level of transglutaminase in the cells was determined by measuring the absorbance at 490 nm, and the correction of the measurement was carried out by measuring the background at 630 nm. The absorbance values of the treated cells were compared with the absorbance value of an untreated control group, thereby calculating the rate of promotion of transglutaminase-1 synthesis, and the results of the calculation are shown in Table 6 below.

tyrosinase = experiment: Tyrosinase activity inhibition (method of Vanni et al); assay type: biochemical; details: concentration 200 mg/ml; 37° C., 10 minutes
Source text: In order to measure the skin whitening effect of the plant extract prepared using the high-pressure enzymatic decomposition technique, a tyrosinase activity inhibitory effect was compared between the green tea extract of Example 1 prepared using the high-pressure enzymatic decomposition technique of the present invention, the green tea extract of Comparative Example 3 prepared using the solvent extraction technique, and vitamin C, a typical whitening functional component.
The tyrosinase activity inhibitory effect was measured using the method of Vanni at al (A. Vanni, Annali Di Chimica, 80, p35, 1990). Specifically, 1.0 ml of 0.1M potassium phosphate buffer (pH 6.8), 1.0 ml of 0.3 mg/ml tyrosine aqueous solution and 0.1 ml of 1,250 units/ml tyrosinase (SIGMAT-7755) were mixed with each other, and 0.2 ml of each sample solution was added thereto at a concentration of 200 mg/ml. Then, the mixture was subjected to an enzymatic reaction at 37° C., for 10 minutes. The absorbance of the reaction solution was measured at 480 nm, and based on the results of the measurement, the tyrosinase activity inhibitory rate (%) of each sample was calculated according to the following equation 2. […]
wherein A: absorbance at 480 nm of a reaction solution to which the sample was not added; and B: absorbance at 480 nm of a reaction solution to which the sample was added.

[1] = DPPH radical elimination (antioxidant activity); assay type: biochemical; details: 100 μM DPPH in ethanol, 37° C., 30 minutes, absorbance 540 nm
Source text: In order to measure the antioxidant effect of the plant extract prepared using the high-pressure enzymatic decomposition technique, a DPPH radical elimination effect was compared between the green tea extract prepared using the high-pressure enzymatic decomposition technique of the present invention (Example 1), the green tea extract prepared using the solvent extraction technique (Comparative Example 3), and Baicalin, a known antioxidant substance.
To measure the antioxidant effects of these extracts, a method of evaluating antioxidant activity based on the change in absorbance caused by the reduction of the organic radical DPPH (1,1-diphenyl-2-picrylhydrazyl) was used. The decrease in absorbance caused by the inhibition of oxidation of DPPH compared to the control was measured, and the concentration (IC50) at which the absorbance was 50% of the control was defined as the effective antioxidant concentration. A lower IC50 value indicates a higher DPPH removal effect, indicating higher antioxidant activity.
Specifically, 10 μl of each of the extracts of Example 1 and Comparative Example 3 and Baicalin was added to 100 μM of a solution of DPPH in ethanol to prepare a reaction solution. The reaction solution was allowed to react at 37° C. for 30 minutes, and then measured for absorbance at 540 nm.

**Q.** Which “Promotion rate of transglutaminase-1 synthesis (%)” value (transglutaminase-1) does the source give for `[Ca+2].[Cl-].[Cl-]` [Calcium chloride, calcium chloride] here?
**A.** The value was 169.9 ± 6.4%.

**Q.** With `O=C1O[C@H]([C@@H](O)CO)C(O)=C1O` [Vitamin C, vitamin C] as the molecule, how does the “Tyrosinase activity inhibitory rate (%)” value (tyrosinase) read?
**A.** The value was 20%.

**Q.** With `O=C(O)[C@H]1O[C@@H](Oc2cc3oc(-c4ccccc4)cc(=O)c3c(O)c2O)[C@H](O)[C@@H](O)[C@@H]1O` [Baicalin] as the molecule, how does the “IC50 (DPPH radical elimination)” value [1] read?
**A.** The value was 3100 µg/mL (≈ 6.95 mM).
